Test results as given in US7205433B2, “Crystal of amino acid ester salt and process for producing the same” (Ajinomoto Co., Inc., priority 2002, dated 2007).

Assays:
Format in all cases: physicochemical
[1] = Experimental Example 1: comparison of hygroscopicity by weight gain over time (44 to 45% RH); settings: 22 to 24° C.
Description: L-Ala-OEt HCl salt and L-Ala-OEt MsOH salt were measured into in a glass container in an amount of 1.6 g each, dried in vacuo at 30° C. for 5 hours, left under conditions of temperature: 22 to 24° C., humidity: 44 to 45% RH, and then the hygroscopicity was compared based on the weight gain over the lapse of time. […] The liquefied portion increased with the lapse of time, and the entire salt became liquid 750 minutes later with no observable crystal.

[2] = Experimental Example 4: comparison of hygroscopicity by weight gain over time (40 to 46% RH); settings: 24° C.
Description: The L-Ala-OEt HCl salt, L-Ala-OEt MsOH salt, L-Ala-OEt BsOH salt, L-Ala-OEt 4-CBS salt, L-Ala-OEt 4-EBS salt, L-Ala-OEt 2,4-DMBS salt, and L-Ala-OEt 2,5-DMBS salt were measured in an amount of about 0.3 g each, left standing in a thermostatic chamber at a temperature of 24° C. and a humidity of 40 to 46% RH, and the hygroscopicity was compared based on the weight gain with the lapse of time. A part of the crystal of the L-Ala-OEt HCl salt was liquefied in 30 minutes, and the liquefied portion increased thereafter with the lapse of time. After 100 minutes, the whole mass became like a sherbet.

[3] = Experimental Example 2: comparison of hygroscopicity by weight gain over time (62 to 64% RH); settings: 24° C.
Description: In the same manner as in Experimental Example 1, L-Ala-OEt MsOH salt and L-Ala-OMe HCl salt were measured into a glass container in an amount of 0.6 g each, left under conditions of temperature: 24° C., humidity: 62 to 64% RH, and then the hygroscopicity was compared based on the weight gain with the lapse of time.

[4] = Experimental Example 5: comparison of hygroscopicity by weight gain over time (60 to 66% RH); settings: 24 EC
Description: The L-Ala-OMe HCl salt, L-Ala-OEt MsOH salt, L-Ala-OEt BsOH salt, L-Ala-OEt 4-CBS salt, L-Ala-OEt 4-EBS salt, L-Ala-OEt 2,4-DMBS salt, and L-Ala-OEt 2,5-DMBS salt were measured in an amount of about 0.3 g each, left standing in a thermostatic chamber at a temperature of 24 EC and a humidity of 60 to 66% RH, and the hygroscopicity was compared based on the weight gain with the lapse of time.

[5] = Experimental Example 7: evaluation of hygroscopicity by weight gain over time (60 to 66% RH); settings: 24 EC
Description: The L-Ala-OMe HCl salt, L-Ala-OMe 4-EBS salt, L-Ala-OMe 2,4-DMBS salt, and L-Ala-OMe 2,5-DMBS salt were measured in an amount of about 0.3 g each, left standing in a thermostatic chamber at temperature of 24 EC and a humidity of 60 to 66% RH, and the hygroscopicity was compared based on the weight gain with the lapse of time. A part of the crystal of the L-Ala-OMe HCl salt was liquefied in 10 minutes, and the entirety became a sherbet in 20 minute. The liquefied portion increased thereafter with the lapse of time. After 80 minutes, the whole was liquefied.

Q: For CCOC(=O)[C@H](C)N.Cl [L-Ala-OEt HCl salt, alanine ethyl ester hydrochloride], which “time to liquefaction of a part of the crystals” value [1] is on record?
A: The value was 60 min.

Q: And the “time until the entire salt became liquid” value [1]?
A: The value was 750 min.

Q: What about the “weight increase rate (% relative to initial weight)” value ([1]; 0 minutes) of the same compound?
A: Its value is 0.00%.

Q: What about the “weight increase rate (% relative to initial weight)” value ([1]; 1 minutes) of the same compound?
A: The value was 1.63%.

Q: And the “weight increase rate (% relative to initial weight)” value ([1]; 2 minutes)?
A: Its value is 1.67%.

Q: What about the “weight increase rate (% relative to initial weight)” value ([1]; 3 minutes) of the same compound?
A: Its value is 1.72%.

Q: And the “weight increase rate (% relative to initial weight)” value ([1]; 4 minutes)?
A: The value was 1.73%.

Q: What about the “weight increase rate (% relative to initial weight)” value ([1]; 6 minutes) of the same compound?
A: Its value is 1.80%.

Q: What about the “weight increase rate (% relative to initial weight)” value ([1]; 10 minutes) of the same compound?
A: Its value is 1.95%.

Q: What about the “weight increase rate (% relative to initial weight)” value ([1]; 15 minutes) of the same compound?
A: The value was 2.07%.

Q: What about the “weight increase rate (% relative to initial weight)” value ([1]; 25 minutes) of the same compound?
A: Its value is 2.29%.

Q: And the “weight increase rate (% relative to initial weight)” value ([1]; 35 minutes)?
A: The value was 2.55%.

Q: What about the “weight increase rate (% relative to initial weight)” value ([1]; 50 minutes) of the same compound?
A: The value was 2.88%.

Q: What about the “state of the crystals” value ([1]; 60 minutes) of the same compound?
A: Its value is “(partly liquefied)”.

Q: What about the “weight increase rate (% relative to initial weight)” value ([1]; 60 minutes) of the same compound?
A: Its value is 3.09%.

Q: What about the “weight increase rate (% relative to initial weight)” value ([1]; 75 minutes) of the same compound?
A: The value was 3.38%.

Q: What about the “weight increase rate (% relative to initial weight)” value ([1]; 90 minutes) of the same compound?
A: Its value is 3.63%.

Q: And the “weight increase rate (% relative to initial weight)” value ([1]; 120 minutes)?
A: The value was 4.10%.

Q: What about the “weight increase rate (% relative to initial weight)” value ([1]; 150 minutes) of the same compound?
A: The value was 4.41%.

Q: And the “weight increase rate (% relative to initial weight)” value ([1]; 180 minutes)?
A: Its value is 4.89%.

Q: What about the “state of the crystals” value ([1]; 750 minutes) of the same compound?
A: The value was “(whole liquid)”.

Q: And the “weight increase rate (% relative to initial weight)” value ([1]; 750 minutes)?
A: Its value is 14.37%.

Q: And the “time until a part of the crystal was liquefied” value (shortened to “time until a part”) [2]?
A: The value was 30 min.

Q: What about the “time until the whole mass became like a sherbet” value [2] of the same compound?
A: Its value is 100 min.

Q: And the “weight increase rate (%)” value ([2]; 0 minutes)?
A: The value was 0.00%.

Q: What about the “weight increase rate (%)” value ([2]; 15 minutes) of the same compound?
A: Its value is 2.63%.

Q: And the “weight increase rate (%)” value ([2]; 30 minutes)?
A: The value was 4.56%.

Q: And the “weight increase rate (%)” value ([2]; 45 minutes)?
A: The value was 6.42%.

Q: What about the “weight increase rate (%)” value ([2]; 60 minutes) of the same compound?
A: Its value is 7.76%.

Q: And the “weight increase rate (%)” value ([2]; 75 minutes)?
A: The value was 8.82%.

Q: What about the “weight increase rate (%)” value ([2]; 90 minutes) of the same compound?
A: Its value is 9.53%.

Q: What about the “weight increase rate (%)” value ([2]; 120 minutes) of the same compound?
A: The value was 9.89%.

Q: What about the “weight increase rate (%)” value ([2]; 150 minutes) of the same compound?
A: Its value is 10.39%.

Q: What about the “weight increase rate (%)” value ([2]; 180 minutes) of the same compound?
A: The value was 10.69%.

Q: Which “time to liquefaction of a part of the crystals” value [3] does the source give for COC(=O)[C@H](C)N.Cl [L-Ala-OMe HCl salt, alanine methyl ester hydrochloride, reference compound] here?
A: The value was 20 min.

Q: And the “time until the entire salt became liquid” value [3]?
A: Its value is 155 min.

Q: And the “weight increase rate (% relative to initial weight)” value ([3]; 0 minutes)?
A: The value was 0.00%.

Q: And the “weight increase rate (% relative to initial weight)” value ([3]; 10 minutes)?
A: The value was 0.11%.

Q: What about the “state of the crystals” value ([3]; 20 minutes) of the same compound?
A: The value was “(partly liquefied)”.

Q: What about the “weight increase rate (% relative to initial weight)” value ([3]; 20 minutes) of the same compound?
A: Its value is 0.54%.

Q: And the “weight increase rate (% relative to initial weight)” value ([3]; 35 minutes)?
A: Its value is 1.04%.

Q: And the “weight increase rate (% relative to initial weight)” value ([3]; 50 minutes)?
A: Its value is 1.67%.

Q: What about the “state of the crystals” value ([3]; 65 minutes) of the same compound?
A: Its value is “(whole sherbet)”.

Q: What about the “weight increase rate (% relative to initial weight)” value ([3]; 65 minutes) of the same compound?
A: Its value is 2.27%.

Q: And the “weight increase rate (% relative to initial weight)” value ([3]; 80 minutes)?
A: The value was 2.83%.

Q: And the “weight increase rate (% relative to initial weight)” value ([3]; 95 minutes)?
A: The value was 3.36%.

Q: What about the “weight increase rate (% relative to initial weight)” value ([3]; 110 minutes) of the same compound?
A: Its value is 3.97%.

Q: What about the “weight increase rate (% relative to initial weight)” value ([3]; 125 minutes) of the same compound?
A: Its value is 4.54%.

Q: What about the “weight increase rate (% relative to initial weight)” value ([3]; 140 minutes) of the same compound?
A: The value was 5.13%.

Q: What about the “state of the crystals” value ([3]; 155 minutes) of the same compound?
A: The value was “(whole liquid)”.

Q: And the “weight increase rate (% relative to initial weight)” value ([3]; 155 minutes)?
A: The value was 5.48%.

Q: And the “weight increase rate (% relative to initial weight)” value ([3]; 170 minutes)?
A: Its value is 6.02%.

Q: And the “weight increase rate (% relative to initial weight)” value ([3]; 185 minutes)?
A: Its value is 6.56%.

Q: What about the “weight increase rate (% relative to initial weight)” value ([3]; 200 minutes) of the same compound?
A: Its value is 7.03%.

Q: And the “time until a part” value [4]?
A: The value was 35 min.

Q: And the “time until the whole mass was like a sherbet” value [4]?
A: The value was 125 min.

Q: And the “weight increase rate (%)” value ([4]; 0 minutes)?
A: Its value is 0.00%.

Q: And the “weight increase rate (%)” value ([4]; 10 minutes)?
A: Its value is 3.03%.

Q: What about the “weight increase rate (%)” value ([4]; 20 minutes) of the same compound?
A: Its value is 4.85%.

Q: And the “weight increase rate (%)” value ([4]; 35 minutes)?
A: Its value is 7.30%.

Q: What about the “weight increase rate (%)” value ([4]; 50 minutes) of the same compound?
A: The value was 8.84%.

Q: What about the “weight increase rate (%)” value ([4]; 65 minutes) of the same compound?
A: Its value is 10.42%.

Q: And the “weight increase rate (%)” value ([4]; 80 minutes)?
A: Its value is 11.65%.

Q: What about the “weight increase rate (%)” value ([4]; 95 minutes) of the same compound?
A: The value was 12.77%.

Q: And the “weight increase rate (%)” value ([4]; 110 minutes)?
A: The value was 13.69%.

Q: And the “weight increase rate (%)” value ([4]; 125 minutes)?
A: Its value is 14.74%.

Q: And the “weight increase rate (%)” value ([4]; 140 minutes)?
A: The value was 15.46%.

Q: What about the “weight increase rate (%)” value ([4]; 155 minutes) of the same compound?
A: The value was 16.23%.

Q: What about the “weight increase rate (%)” value ([4]; 170 minutes) of the same compound?
A: The value was 16.88%.

Q: And the “weight increase rate (%)” value ([4]; 185 minutes)?
A: The value was 17.43%.

Q: And the “weight increase rate (%)” value ([4]; 200 minutes)?
A: Its value is 17.77%.

Q: And the “time until a part” value [5]?
A: The value was 10 min.

Q: What about the “time until the entirety became a sherbet” value [5] of the same compound?
A: Its value is 20 min.

Q: And the “time until the whole was liquefied” value [5]?
A: Its value is 80 min.

Q: What about the “weight increase rate (%)” value ([5]; 0 min) of the same compound?
A: Its value is 0.00%.

Q: And the “state of the crystals” value ([5]; 10 min)?
A: The value was “(partly liquefied)”.

Q: And the “weight increase rate (%)” value ([5]; 10 min)?
A: The value was 6.74%.

Q: And the “state of the crystals” value ([5]; 20 min)?
A: Its value is “(sherbet state)”.

Q: What about the “weight increase rate (%)” value ([5]; 20 min) of the same compound?
A: The value was 10.06%.

Q: And the “weight increase rate (%)” value ([5]; 35 min)?
A: The value was 12.52%.

Q: And the “weight increase rate (%)” value ([5]; 50 min)?
A: The value was 14.31%.

Q: What about the “weight increase rate (%)” value ([5]; 65 min) of the same compound?
A: Its value is 15.69%.

Q: And the “state of the crystals” value ([5]; 80 min)?
A: The value was “(entirely liquefied)”.

Q: And the “weight increase rate (%)” value ([5]; 80 min)?
A: The value was 17.16%.

Q: And the “weight increase rate (%)” value ([5]; 95 min)?
A: Its value is 18.31%.

Q: What about the “weight increase rate (%)” value ([5]; 110 min) of the same compound?
A: The value was 19.42%.

Q: What about the “weight increase rate (%)” value ([5]; 125 min) of the same compound?
A: The value was 20.54%.

Q: And the “weight increase rate (%)” value ([5]; 140 min)?
A: Its value is 21.66%.

Q: What about the “weight increase rate (%)” value ([5]; 155 min) of the same compound?
A: The value was 22.62%.

Q: And the “weight increase rate (%)” value ([5]; 170 min)?
A: Its value is 23.55%.

Q: What about the “weight increase rate (%)” value ([5]; 185 min) of the same compound?
A: The value was 24.41%.

Q: And the “weight increase rate (%)” value ([5]; 200 min)?
A: The value was 25.14%.
